Source: US20120022045A1, “BRIDGED COMPOUNDS AS HIV INTEGRASE INHIBITORS” (priority 2009, published 2012)
Like-named read-outs stand apart in the source and are kept apart here.

Columns and labels:
[1] = test system: HIV-1 integrase mutant virus G140S/Q148H; experiment: Single cycle infectivity assay in HeLa P4-2 cells, integrase mutant G140S/Q148H virus; assay type: cell-based; details: fold shift in IC50 versus wild type IIIB
Protocol: (§1) An assay for measuring the inhibition of acute HIV-1 infection with HeLa P4-2 cells in a single cycle infectivity assay was conducted using methods described in Joyce et al., J. Biol. Chem. 2002, 277: 45811, Hazuda et al., Science 2000, 287: 646, and Kimpton et al, J. Virol. 1992, 66: 2232. Proviral plasmids encoding viruses containing specific mutations in the integrase gene (N155H, Q148R, Y143R, E92Q, or G140S/Q148H) were generated by site-directed mutagenesis, and viruses were produced by transfecting 293T cells with the appropriate proviral plasmids.

[2] = test system: HIV-1 integrase mutant virus Q148R; experiment: Single cycle infectivity assay in HeLa P4-2 cells, integrase mutant Q148R virus; assay type: cell-based; details: fold shift in IC50 versus wild type IIIB
Protocol: as §1

HIV-1 = experiment: Inhibition of acute HIV-1 infection of T-lymphoid cells (spread assay); assay type: cell-based; details: 10% FBS, read-out: IC95 (nM) in the presence of 10% FBS
Protocol: Assays for the inhibition of acute HIV-1 infection of T-lymphoid cells were conducted in accordance with Vacca, J. P. et al., Proc. Natl. Acad. Sci. USA 1994, 91: 4096.

[3] = test system: HIV-1 integrase mutant virus Y143R; experiment: Single cycle infectivity assay in HeLa P4-2 cells, integrase mutant Y143R virus; assay type: cell-based; details: fold shift in IC50 versus wild type IIIB
Protocol: as §1

HIV-1 wild type IIIB = experiment: Single cycle infectivity assay in HeLa P4-2 cells, wild type virus; assay type: cell-based
Protocol: as §1

HIV-1 integrase = molecular target: T1, HIV-1 integrase (Human immunodeficiency virus type 1 group M subtype B, UniProt P04585); experiment: HIV integrase assay: strand transfer catalyzed by recombinant integrase; assay type: biochemical; details: strand transfer activity
T1 construct: strand transfer activity of HIV-1 integrase
Protocol: Assays for the strand transfer activity of HIV-1 integrase were conducted in accordance with WO 02/30930 for recombinant integrase.
Further description on conducting the assay using preassembled complexes is found in Wolfe, A. L. et al., J. Virol. 1996, 70: 1424-1432, Hazuda et al., J. Virol. 1997, 71: 7005-7011; Hazuda et al., Drug Design and Discovery 1997, 15: 17-24; and Hazuda et al., Science 2000, 287: 646-650.

[4] = test system: HIV-1 integrase mutant virus N155H; experiment: Single cycle infectivity assay in HeLa P4-2 cells, integrase mutant N155H virus; assay type: cell-based; details: fold shift in IC50 versus wild type IIIB
Protocol: as §1

[5] = Human immunodeficiency virus 1, T-lymphoid
[6] = Human immunodeficiency virus 1, IIIB, HeLaP4-2, wild type IIIB

Compound	G140S/Q148H (shift) [1] [fold]	Q148R (shift) [2] [fold]	IC95 (HIV-1) [nM]	Y143R (shift) [3] [fold]	IC50 (HIV-1 wild type IIIB; wild type IIIB) [nM]	IC50 (HIV-1 integrase) [nM]	N155H (shift) [4] [fold]	IC95 (HIV-1; [5]) [nM]	IC50 (HIV-1 wild type IIIB; [6]) [nM]
N-5-{[(4-fluorolbenzyl)amino]carbonyl}-4-hydroxy-3-oxo-2,6-diazatricyclo[6.3.2.0^2,7]trideca-4,6-dien-8-yl)-N,N′,N′-trimethylethanediamide [Example 24B]	6	1	7.4	2	7	24	3		
CN(C(=O)C(=O)N1CCOCC1)C12CCC(CC1)Cn1c2nc(C(=O)NCc2ccc(F)cc2)c(O)c1=O [Example 3, N-(4-fluorobenzyl)-5-hydroxy-1-{methyl[morpholin-4-yl(oxo)acetyl]amino}-6-oxo-3,7-diazatricyclo[7.2.2.0^2,7]trideca-2,4-diene-4-carboxamide]	9	2		1		32	2	11	31
CC1C2CCC(N(C)C(=O)C(=O)N(C)C)(CC2)c2nc(C(=O)NCc3ccc(F)cc3)c(O)c(=O)n21 (single isomer, unassigned) [Example 13B, N-(4-{[(4-fluorobenzyl)amino]carbonyl}-5-hydroxy-8-methyl-6-oxo-3,7-diazatricyclo[7.2.2.0^2,7]trideca-2,4-dien-1-yl)-N′,N′,N″-trimethylethanediamide]	>209	57	20	7	8	13	30		
CN1CCN(C(=O)C(=O)N(C)C23CCC(CC2)Cn2c3nc(C(=O)NCc3ccc(F)cc3)c(O)c2=O)CC1 [Example 4]	4	3		1		14	4	39	33
O=C(NC12CCC(CC1)Cn1c2nc(C(=O)NCc2ccc(F)cc2)c(O)c1=O)C(=O)N1CCOCC1 [Example 6, N-(4-Fluorobenzyl)-3-hydroxy-10-{[morpholin-4-yl(oxo)acetyl]amino}-4-oxo-4,6,7,8,9,10-hexahydro-7,10-ethanopyrimido[1,2-a]azepine-2-carboxamide]	5	2		1		37	2	5.3	9
Cc1cc(CNC(=O)c2nc3n(c(=O)c2O)CC2CCC3(N(C)C(=O)C(=O)N(C)C)CO2)ccc1F (single isomer, unassigned) [Example 11A]	>79	8	17	2	21	37	10		
Cc1cc(CNC(=O)c2nc3n(c(=O)c2O)CC2CCC3(N(C)C(=O)C(=O)N(C)C)CO2)ccc1F (single isomer, unassigned) [Example 11B]	14	2	7.8	1	112	14	5		
CN(C)C(=O)C(=O)N(C)C12CCC(CC1)Cn1c2nc(C(=O)NCc2ccc(F)cc2)c(O)c1=O [Example 1, N-(4-{[(4-fluorobenzyl)amino]carbonyl}-5-hydroxy-6-oxo-3,7-diazatricyclo[7.2.2.0^2,7]trideca-2,4-dien-1-yl)-N′,N′,N″-trimethylethanediamide]	15	2		2		13	3	6.2	7.2
CN(C)C(=O)C(=O)N(C)C12CCC(Cn3c1nc(C(=O)NCc1ccc(F)cc1)c(O)c3=O)OC2 (single isomer, unassigned) [Example 10A, N-(4-{[(4-fluorobenzyl)amino]carbonyl}-5-hydroxy-6-oxo-10-oxa-3,7-diazatricyclo[7.2.2.0^2,7]trideca-2,4-dien-1-yl)-N′,N′N′-trimethylethanediamide]	26	4	9.0	1	221	5	5		
CCN(C(=O)C(=O)N(C)C)C12CCC(Cn3c1nc(C(=O)NCc1ccc(F)cc1)c(O)c3=O)OC2 (single isomer, unassigned) [Example 12B, N-Ethyl-N-(4-{[(4-fluorobenzyl)amino]carbonyl}-5-hydroxy-6-oxo-10-oxa-3,7-diazatricyclo[7.2.2.0^2,7]trideca-2,4-dien-1-yl)-N′,N′-dimethylethanediamide]	240	32	19	7	7	18	56		
CN(C)C(=O)C(=O)N(C)C12CCC(CC1)n1c2nc(C(=O)NCc2ccc(F)cc2)c(O)c1=O [Example 30]	32	9		3			7	22.4	17
CC1C2CCC(NC(=O)C(=O)N(C)C)(CO2)c2nc(C(=O)NCc3ccc(F)cc3)c(O)c(=O)n21 (single isomer, unassigned) [Example 29D, N′-(4-{[(4-Fluorobenzyl)amino]carbonyl}-5-hydroxy-8-methyl-6-oxo-10-oxa-3,7-diazatricyclo[7.2.2.0^2,7]trideca-2,4-dien-1-yl)-N-dimethylethanediamide]	2	1	21.6	1	21		2		
CN(C)C(=O)C(=O)N(C)C12CCC(Cn3c1nc(C(=O)NCc1ccc(F)cc1)c(O)c3=O)C2 (stereo not shown) [Example 8]	110	18		13			16	9.2	13
CNC(=O)C(=O)N(C)C12CCC(OC1)C(C)n1c2nc(C(=O)NCc2ccc(F)cc2)c(O)c1=O (single isomer, unassigned) [Example 28A, N-(4-{[(4-fluorobenzyl)amino]carbonyl}-5-hydroxy-8-methyl-6-oxo-10-oxa-3,7-diazatricyclo[7.2.2.0^2,7]trideca-2,4-dien-1-yl)-N,N′-dimethylethanediamide]	4	1		1			3	17.8	46
CCC12CCC(N(C)C(=O)C(=O)N(C)C)(CO1)c1nc(C(=O)NCc3ccc(F)cc3)c(O)c(=O)n1C2 (single isomer, unassigned) [Example 20B, N-(9-ethyl-4-{[(4-fluorolbenzyl)amino]carbonyl}-5-hydroxy-6-oxo-10-oxa-3,7-diazatricyclo[7.2.2.0^2,7]trideca-2,4-dien-1-yl)-N,N′,N′-trimethylethanediamide]	102	11	16.7	1	17		7		
CN(C)C(=O)C(=O)N(C)C12CCC(C)(Cn3c1nc(C(=O)NCc1ccc(F)cc1)c(O)c3=O)OC2 (single isomer, unassigned) [Example 21B]	>93	11	21.0	3	18		13		
CC1C2CCC(N(C)C(=O)C(=O)N(C)C)(CO2)c2nc(C(=O)NCc3ccc(F)cc3)c(O)c(=O)n21 (single isomer, unassigned) [Example 27B, N-(4-{[(4-fluorobenzyl)amino]carbonyl}-5-hydroxy-8-methyl-6-oxo-10-oxa-3,7-diazatricyclo[7.2.2.0^2,7]trideca-2,4-dien-1-yl)-N,N′,N′-trimethylethanediamide]	>70	9	27.3	7	24		20		
